Test results published in patent publication US20110306040A1, “CPG RECEPTOR (CPG-R) AND METHODS RELATING THERETO” (priority 1999, published 2011).

Legend:
[1] = tested on: MAPK pathways, including ERK, JNK and p38; assay: Immunoblotting for MAPK pathway phosphorylation (ERK1/2, JNK/c-jun, p38 substrate ATF2); format: cell-based, mouse; details: BMMO, dendritic cells and RAW 264.7; within an hour of stimulation; oligonucleotides 1 μM; data not shown
Protocol: (§1) Bone marrow was harvested from female mice 6-12 weeks old of various genotypes (C57Bl/6, Balb/c; Charles River; or C3H/HeJ, Jackson Labs). Bone marrow cells were used fresh or were frozen in fetal calf serum (FCS; Summit) containing 10% dimethylsulfoxide and stored at −80° C. Bone-marrow macrophages (BMMO) were prepared as described in Current Protocols in Immunology, supra. Briefly, fresh or frozen bone marrow cells were cultured in RPMI, 10% heat inactivated (30 minutes, 56° C.) fetal calf serum (FCS), 2 mM L-glutamine, 100 μg/ml streptomycin, 100 units/ml penicillin, 50 μM β-mercaptoethanol and 100 U/ml recombinant macrophage colony stimulating factor (M-CSF; R&D Systems). After 24 hours, nonadherent cells were removed to a new dish, and culture continued for 7 days to produce a macrophage monolayer. Nonadherent BMDDCs were produced by culture in the same medium supplemented with GM-CSF (200 U/ml; Preprotech) rather than M-CSF. […]
Macrophages were differentiated from bone marrow cells of C57Bl/6 mice as described in Example 1 and then transferred to low serum medium lacking M-CSF for 4 hours. […] The positive result for ERK½ MAPK activation in RAW 264.7 cells and BMMO are in contrast to observations in another mouse macrophage cell line, J774, where ERK phosphorylation was not detected in CpG oligonucleotide-treated cells.

NF-κB = assay: κB-Luc assay in RAW 264.7 macrophages; format: cell-based, mouse; details: for κB-dependent luciferase expression: RAW 264.7 transfected with κB-Luc, IL-1 20 ng/ml, MPL 1 μg/ml, oligonucleotides 4 μM, normalized to untreated transfected cells
Protocol: RAW 264.7 cells were seeded into 6-well plates (Corning) at a density of 3×10^5 cells per well 24 hours prior to transfection. Plasmids used in transfection were pNF-κB-Luc (Clontech) and pCR3. V64-Met-Flag-MyD88lpr (kindly provided by Jurgen Tschopp; described in (Burns et al., J. Biol. Chem., 1998, 273, 12203-9). Total plasmid DNA concentration was normalized across all wells by addition of empty vector (pCMVKm2, Chiron). Cells were transfected with stated concentrations of DNA in Opti-MEM I (Gibco BRL) with […] of LipofectAMINE (Gibco BRL) per well according to manufacturer's instructions. Cells were incubated with the transfection mixture 3 hours at 37° C., then culture media was replaced and cells were allowed to recover overnight. The following day transfected cells were treated in culture media at 37° C., 5% CO2 with phosphorothioate oligonucleotides, MPL, LPS, or cytokines at indicated concentrations and times. Cells were washed once with cold phosphate buffered saline (PBS), and lysed with Reporter Lysis BufferJ (Promega). Luciferase activity in lysate supematants was determined using Microlite 2 plates (Dynex) and a ML 3000 Luminometer (Dynatech) all according to manufacture's instructions. For detection of FLAG-MyD88lpr expression, the insoluble pellet from transfected RAW 264.7 cells was resuspended in Triton lysis buffer and sonicated 10 minutes prior to addition of sample buffer and boiling. After separation and transfer to nitrocellulose, membranes were immunoblotted using FLAG M2 (Sigma) antibody.
To directly evaluate κB-dependent transcription induced by CpG oligonucleotide or MPL treatment, RAW 264.7 macrophage were transfected with an NF-κB-inducible reporter plasmid encoding luciferase under the control of multiple copies of the kappa light chain enhancer (κB-Luc) and the following day treated with adjuvants or cytokines. In particular, RAW 264.7 cells were transfected with a kB-driven luciferase reporter gene and treated 24 hours later with IL-1 (20 ng/ml), MPL (1 μg/ml), LPS (1 μg/ml) or a phosphorothioate CpG oligonucleotide (4 μM) for 6 hours. Luciferase activity in cell lysates was quantified by luminometry, and results were normalized to the luciferase signal in untreated transfected cells.
The effects of CpG oligonucleotide on κB-dependent luciferase expression were dose- and time-dependent (see FIGS. 1B and 1C). In regard to FIG. 1B, RAW 264.7 cells transiently transfected with a κB-luciferase reporter plasmid were treated 24 hours later with concentrations of phosphorothioate CpG oligonucleotide concentrations ranging from 0.25-8 μM, or a control oligonucleotide (4 μM) for 6 hours. Activation was detected at CpG oligonucleotide concentrations as low as 0.25 μM (FIG. 1B), but not at the lowest concentration tested (0.05 μM) (data not shown). Data shown in FIG. 1B are average luciferase activity in lysates from duplicate wells normalized to luciferase levels in lysates from untreated transfected wells on the same 6-well tissue culture plate. […] In regard to FIG. 1C, RAW 264.7 cells transiently transfected with a kB-Luc and treated 24 hours later with a CpG-containing oligonucleotide (4 μM; open circles), or LPS (1 μg/ml; filled circles). Results shown in FIG. 1C are average of duplicate wells normalized to untreated transfected wells.

MyD88 [2] = assay: κB-Luc assay in RAW 264.7 cells co-transfected with dominant-negative MyD88lpr; format: cell-based, mouse; details: κB-Luc:MyD88lpr 10:1 or 1:1, oligonucleotides 4 μM, MPL 1 μg/ml, LPS 1 μg/ml
[3] = tested on: CD86 expression on TLR4 mutant BMDDC; assay: Flow cytometry of cell-surface CD86 on TLR4 mutant (C3H/HeJ) BMDDC; format: cell-based, mouse; details: overnight, oligonucleotide 5 μM, LPS 1 μg/ml, normalized to untreated
Protocol: as §1, with “monolayer.” for “monolayer. Nonadherent BMDDCs were produced by culture in the same medium supplemented with GM-CSF (200 U/ml; Preprotech) rather than M-CSF.”
(§2) BMDDC were treated overnight with adjuvants as indicated, washed, resuspended in cold PBS/2% FBS containing FcBlock (0.25 μg/10^6 cells; Pharmingen), and FITC- and PE-conjugated antibodies (1 μg/10^6 cells) were added 5 minutes later. Cells were incubate with antibodies on ice 30 minutes, washed, and analyzed by flow cytometry on a FACScan (Becton-Dickenson). […] Changes in CD86 expression are assessed based on geometric mean fluorescence of CD86-FITC staining of the live CD11c cells treated with adjuvants normalize to the geometric mean CD86-FITC fluorescence of untreated BMDDC cultures. […]

IκBα = assay: Immunoblotting for phosphorylated and total IκBα in RAW 264.7 cells; format: cell-based, mouse; details: 4 μM
Protocol: Following stimulation, BMMO or RAW 264.7 cells were lysed in 1% Triton X-100, 50 mM Tris, 62.5 mM EDTA (pH 8.0) with CompleteJ protease inhibitor cocktail (Boehringer Mannheim) (Triton lysis buffer). Lysates were boiled in reducing sample buffer, separated on 10% polyacrylamide gels using the NuPAGEJ Bis-Tris electrophoresis system (Novex). Nitrocellulose membranes were probed with antibodies against IκB-α, phosphorylated-IκB-α, (New England BioLabs), or anti-IL-18 (Santa Cruz Biotechnology) according to manufacturer's instructions, and visualized with enhanced chemiluminescence (Amersham).
Lysates were also prepared from untreated RAW 264.7 cells or cells treated with a phosphorothioate CpG oligonucleotide (4 μM) for 5, 10, 20 and 60 minutes as well as a control oligonucleotide lacking CpG motifs for 60 minutes. The lysates were then resolved by electrophoresis, and immunoblotted with antisera to phosphorylated IκBα and total IκBα. […] This activation was detected at the level of IκBα phosphorylation within 10 minutes of CpG oligonucleotide addition, and degradation of IκBα was notable at 20 minutes.

MyD88 [4] = assay: κB luciferase assay of NIH-3T3 cells transfected with MyD88 dominant-negative constructs; format: cell-based, murine; details: FIG. 3A
Text: (§3) In another set of experiments, three MyD88 constructs lacking the ability to transduce signals were amplified by PCR, and placed under constitutive control of the CMV promoter (pCMV-FLAG vector, Sigma Aldrich). The first construct, MyD88lpr, contains a point mutation F56N in the death domain. The second construct, MyD88-ΔDD, lacks the death domain completely. The third construct, MyD88-THD, lacks both the death domain and the intermediate domain. The DNA was transfected into RAW 264.7 cells or murine embryonic NIH-3T3 cells using a cationic lipid reagent. A luciferase reporter plasmid was cotransfected. […] Cells were then stimulated with CpG oligonucleotides and several control cytokines. Luciferase expression was assayed on a luminometer to determine if the mutant MyD88 protein had affected CpG signaling. Restriction analysis and sequencing results confirmed the presence of the MyD88 constructs (data not shown). […] The MyD88 TIR domain alone was sufficient to block signaling.

MyD88 [5] = assay: κB luciferase assay of RAW 264.7 cells transfected with MyD88 dominant-negative constructs; format: cell-based, mouse; details: FIG. 3B
Text: as §3

CD86 expression on BMDDC = assay: Flow cytometry of cell-surface CD86 on wild-type (Balb/c) BMDDC; format: cell-based, mouse; details: overnight, oligonucleotides 5 μM, LPS 1 μg/ml, normalized to untreated
Protocol: as §1, with “monolayer.” for “monolayer. Nonadherent BMDDCs were produced by culture in the same medium supplemented with GM-CSF (200 U/ml; Preprotech) rather than M-CSF.”
as §2

ERK = details: J774 mouse macrophage cell line; cited from earlier work

Molecule: tccaggacttctctcaggtt (TCCAGGACTTCTCTCAGGTT; DNA, all phosphorothioate, methylation of C not given here) [control oligonucleotide]
- Phosphorylation of ERK, JNK and/or the JNK substrate c-jun, and of the p38 MAPK substrate ATF2 [1]: not
- κB-dependent luciferase expression (NF-κB; 6 hours, LPS 1 μg/ml): did not induce an increase

Molecule: monophosphoiyl lipid A [MPL]
- κB-dependent luciferase expression (NF-κB; 6 hours, LPS 1 μg/ml): potent activators of NF-κB
- Effect of dominant-negative MyD88lpr expression on induced κB-dependent luciferase activity (MyD88 [2]): inhibited
- Cell-surface CD86 expression on live CD11c positive cells [3]: no change in CD86 expression

Molecule: tccatgacgttcctgacgtt [CpG oligonucleotide]
- Phosphorylation of ERK, JNK and/or the JNK substrate c-jun, and of the p38 MAPK substrate ATF2 [1]: observed in all three cell types
- Time at which IκBα phosphorylation was detected after addition (IκBα): ≤ 10 min
- Time at which degradation of IκBα was notable (IκBα): 20 min
- κB-Luc activation at the lowest concentration tested (NF-κB; RAW 264.7, 0.05 μM, data not shown): not
- Activation of the reporter gene at 10 μM dose relative to 8 μM (NF-κB; RAW 264.7, 10 μM, data not shown): not further enhanced
- Concentration of maximal activation of the reporter gene (NF-κB; RAW 264.7, 6 hours, FIG. 1B): 8 µM
- Lowest concentration at which κB-Luc activation was detected (NF-κB; RAW 264.7, 6 hours, FIG. 1B): 0.25 µM
- Increase of κB-dependent luciferase expression by 2 hours (NF-κB; RAW 264.7, CpG oligonucleotide 4 μM, LPS 1 μg/ml, FIG. 1C): greater than two-fold increase
- κB-dependent luciferase expression (NF-κB; 6 hours, LPS 1 μg/ml): induced κB-dependent luciferase expression, to a level similar to that induced by MPL or LPS
- Effect of dominant-negative MyD88lpr expression on induced κB-dependent luciferase activity (MyD88 [2]): inhibited
- Effect of dominant negative MyD88 constructs (MyD88lpr, MyD88-ΔDD, MyD88-THD) on signaling to κB luciferase reporter (MyD88 [4]): specifically and selectively blocks signaling
- Effect of dominant negative MyD88 constructs (MyD88lpr, MyD88-ΔDD, MyD88-THD) on signaling to κB luciferase reporter (MyD88 [5]): specifically and selectively blocks signaling
- Cell-surface CD86 expression on live CD11c positive cells (CD86 expression on BMDDC): increased cell-surface CD86 expression
- Cell-surface CD86 expression on live CD11c positive cells [3]: an increase in CD86 expression similar to that observed in the wild-type BMDDC
- ERK phosphorylation (ERK): not detected

B1: IL-1: recombinant mouse interleukin-1β (Endogen) (protein, UniProt P10749 118-269, looked up)
Interleukin-1 beta: VPIRQLHYRLRDEQQKSLVLSDPYELKALHLNGQNINQQVIFSMSFVQGEPSNDKIPVALGLKGKNLYLSCVMKDGTPTLQLESVDPKQYPKKKMEKRFVFNKIEVKSKVEFESAEFPNWYISTSQAEHKPVFLGNNSGQDIIDFTMESVSS
- κB-dependent luciferase expression (NF-κB; 6 hours, LPS 1 μg/ml): poor activator
- Effect of dominant negative MyD88 constructs (MyD88lpr, MyD88-ΔDD, MyD88-THD) on signaling to κB luciferase reporter (MyD88 [4]): did inhibit

B2: IL-18: recombinant mouse interleukin-18 (Biosource) (protein, UniProt P70380 36-192, looked up)
Interleukin-18: NFGRLHCTTAVIRNINDQVLFVDKRQPVFEDMTDIDQSASEPQTRLIIYMYKDSEVRGLAVTLSVKDSKMSTLSCKNKIISFEEMDPPENIDDIQSDLIFFQKRVPGHNKMEFESSLYEGHFLACQKEDDAFKLILKKKDENGDKSVMFTLTNLHQS
- κB-dependent luciferase expression (NF-κB; 6 hours, LPS 1 μg/ml): poor activator
